Laboratory results from publication PMC9481151, “Discovery of new symmetrical and asymmetrical nitrile-containing 1,4-dihydropyridine derivatives as dual kinases and P-glycoprotein inhibitors: synthesis, in vitro assays, and in silico studies” (Journal of Enzyme Inhibition and Medicinal Chemistry, 2022).
Converted amounts (≈) assume the structure as drawn. “And” between values parts separate entries of the source, which are not always exact repeats. Equal entries are not always repeated. Where two headings read alike, the source gives them in different places.

What was measured:
CCRF-CEM = experiment: NCI single dose (10 µM) SRB screen; format: cell-based, human; conditions: leukaemia, 48 h
HL-60(TB) = experiment: NCI single dose (10 µM) SRB screen; format: cell-based, human; conditions: leukaemia, 48 h
RPMI-8226 = experiment: NCI single dose (10 µM) SRB screen; format: cell-based, human; conditions: leukaemia, 48 h
A549/ATCC = experiment: NCI single dose (10 µM) SRB screen; format: cell-based, human; conditions: non-small cell lung cancer, 48 h
HOP-62 = experiment: NCI single dose (10 µM) SRB screen; format: cell-based, human; conditions: non-small cell lung cancer, 48 h
SF-295 = experiment: NCI single dose (10 µM) SRB screen; format: cell-based, human; conditions: CNS cancer, 48 h
SNB-75 = experiment: NCI single dose (10 µM) SRB screen; format: cell-based, human; conditions: CNS cancer, 48 h
MDA-MB-435 = experiment: NCI single dose (10 µM) SRB screen; format: cell-based, human; conditions: melanoma, 48 h
SK-MEL-28 = experiment: NCI single dose (10 µM) SRB screen; format: cell-based, human; conditions: melanoma, 48 h
SK-OV-3 = experiment: NCI single dose (10 µM) SRB screen; format: cell-based, human; conditions: ovarian cancer, 48 h
BT-549 = experiment: NCI single dose (10 µM) SRB screen; format: cell-based, human; conditions: breast cancer, 48 h
Staphylococcus aureus = experiment: Agar well diffusion method; conditions: for zone of inhibition at 1000 µg/mL: Staphylococcus aureus, 24 h, read-out: Diameter of inhibition zone, S. aureus; for % activity index, S. aureus: relative to ciprofloxacin
Bacillus subtilis = experiment: Agar well diffusion method; conditions: for zone of inhibition at 1000 µg/mL: Bacillus subtilis, 24 h, read-out: Diameter of inhibition zone, B. subtilis; for % activity index, B. subtilis: relative to ciprofloxacin
Pseudomonas aeruginosa = experiment: Agar well diffusion method; conditions: for zone of inhibition at 1000 µg/mL: Pseudomonas aeruginosa, 24 h, read-out: Diameter of inhibition zone, P. aeruginosa; for % activity index, P. aeruginosa: relative to ciprofloxacin
S. aureus = experiment: MIC, two-fold microbroth dilution method; conditions: Staphylococcus aureus
B. subtilis = experiment: MIC, two-fold microbroth dilution method; conditions: Bacillus subtilis
E. coli = experiment: MIC, two-fold microbroth dilution method; conditions: Escherichia coli, read-out: MIC (µg/mL) E. coli
P. aeruginosa = experiment: MIC, two-fold microbroth dilution method; conditions: Pseudomonas aeruginosa, read-out: MIC (µg/mL) P. aeruginosa
C. albicans = experiment: MIC, two-fold microbroth dilution method; conditions: Candida albicans
A. flavus = experiment: MIC, two-fold microbroth dilution method; conditions: Aspergillus flavus, read-out: MIC (µg/mL) A. flavus
[1] = read-out: MIC (µg/mL) S. aureus
[2] = read-out: MIC (µg/mL) B. subtilis
[3] = read-out: MIC (µg/mL) C. albicans
[4] = 24 h, read-out: MIC, B. subtilis

SMILES | GI% CCRF-CEM (CCRF-CEM) | GI% HL-60(TB) (HL-60(TB)) | GI% RPMI-8226 (RPMI-8226) | GI% A549/ATCC (A549/ATCC) | GI% HOP-62 (HOP-62) | GI% SF-295 (SF-295) | GI% SNB-75 (SNB-75) | GI% MDA-MB-435 (MDA-MB-435) | GI% SK-MEL-28 (SK-MEL-28) | GI% SK-OV-3 (SK-OV-3) | GI% BT-549 (BT-549) | melting point | zone of inhibition at 1000 µg/mL (Staphylococcus aureus) | % activity index, S. aureus (Staphylococcus aureus) | zone of inhibition at 1000 µg/mL (Bacillus subtilis) | % activity index, B. subtilis (Bacillus subtilis) | zone of inhibition at 1000 µg/mL (Pseudomonas aeruginosa) | % activity index, P. aeruginosa (Pseudomonas aeruginosa) | MIC (S. aureus; [1]) | MIC (B. subtilis; [2]) | also measured
CCOC(=O)C1=C(C)NC(C)=C(C(=O)OCCOC)C1c1cccc(C#N)c1 (racemic) [Compound 2k, (±)-3-Ethyl 5-(2-methoxyethyl) 4-(3-cyanophenyl)-2,6-dimethyl-1,4-dihydropyridine-3,5-dicarboxylate] | – (Only GI% ≥ 10 are shown) | 12% | – (Only GI% ≥ 10 are shown) | – (Only GI% ≥ 10 are shown) | – (Only GI% ≥ 10 are shown) | – (Only GI% ≥ 10 are shown) | – (Only GI% ≥ 10 are shown) | – (Only GI% ≥ 10 are shown) | – (Only GI% ≥ 10 are shown) | – (Only GI% ≥ 10 are shown) | – (Only GI% ≥ 10 are shown) | 133 to 134 °C | 17 mm | 70.8% | 13 mm | 56.5% | 20 mm | 86.9% | 16 µg/mL (≈ 41.6 µM) | 8 µg/mL (≈ 20.8 µM) | MIC (E. coli): 4 µg/mL (≈ 10.4 µM); MIC (P. aeruginosa): 8 µg/mL (≈ 20.8 µM); MIC (C. albicans; [3]): 32 µg/mL (≈ 83.2 µM); MIC (A. flavus): 32 µg/mL (≈ 83.2 µM)
COC(=O)C1=C(C)NC(C)=C(C(=O)OC(C)C)C1c1cccc(C#N)c1 (racemic) [Compound 2a, (±)-3-Isopropyl 5-methyl 4-(3-cyanophenyl)-2,6-dimethyl-1,4-dihydropyridine-3,5-dicarboxylate] | – (Only GI% ≥ 10 are shown) | 23% | – (Only GI% ≥ 10 are shown) | – (Only GI% ≥ 10 are shown) | – (Only GI% ≥ 10 are shown) | – (Only GI% ≥ 10 are shown) | – (Only GI% ≥ 10 are shown) | – (Only GI% ≥ 10 are shown) | – (Only GI% ≥ 10 are shown) | – (Only GI% ≥ 10 are shown) | – (Only GI% ≥ 10 are shown) | 128 to 130 °C | 20 mm | 83% and 83.3% | 17 mm | 73% and 73.9% | 19 mm | 82.6% | 1 µg/mL (≈ 2.82 µM) | 2 µg/mL (≈ 5.64 µM) | MIC (S. aureus; 24 h, read-out: MIC, S. aureus): 1 µg/mL (≈ 2.82 µM); MIC (B. subtilis; [4]): 2 µg/mL (≈ 5.64 µM); MIC (E. coli): 2 µg/mL (≈ 5.64 µM); MIC (P. aeruginosa): 4 µg/mL (≈ 11.3 µM); MIC (C. albicans; [3]): 4 µg/mL (≈ 11.3 µM); MIC (A. flavus): 8 µg/mL (≈ 22.6 µM)
CCOC(=O)C1=C(C)NC(C)=C(C(=O)OC(C)(C)C)C1c1cccc(C#N)c1 (racemic) [Compound 2j, (±)-3-Tert-butyl 5-ethyl 4-(3-cyanophenyl)-2,6-dimethyl-1,4-dihydropyridine-3,5-dicarboxylate] | – (Only GI% ≥ 10 are shown) | 19% | 12% | 11% | – (Only GI% ≥ 10 are shown) | – (Only GI% ≥ 10 are shown) | 22% | – (Only GI% ≥ 10 are shown) | – (Only GI% ≥ 10 are shown) | – (Only GI% ≥ 10 are shown) | – (Only GI% ≥ 10 are shown) | 152 to 153 °C | 18 mm | 75% | 15 mm | 65.2% | 20 mm | 86% and 86.9% | 8 µg/mL (≈ 20.9 µM) | 4 µg/mL (≈ 10.5 µM) | MIC (E. coli): 1 µg/mL (≈ 2.61 µM); MIC (P. aeruginosa): 4 µg/mL (≈ 10.5 µM); MIC (C. albicans; [3]): 16 µg/mL (≈ 41.8 µM); MIC (A. flavus): 8 µg/mL (≈ 20.9 µM)
CCOC(=O)C1=C(C)NC(C)=C(C(=O)OC)C1c1cccc(C#N)c1 (racemic) [Compound 2g, (±)-3-Ethyl 5-methyl 4-(3-cyanophenyl)-2,6-dimethyl-1,4-dihydropyridine-3,5-dicarboxylate] | – (Only GI% ≥ 10 are shown) | – (Only GI% ≥ 10 are shown) | – (Only GI% ≥ 10 are shown) | – (Only GI% ≥ 10 are shown) | – (Only GI% ≥ 10 are shown) | – (Only GI% ≥ 10 are shown) | – (Only GI% ≥ 10 are shown) | – (Only GI% ≥ 10 are shown) | – (Only GI% ≥ 10 are shown) | – (Only GI% ≥ 10 are shown) | – (Only GI% ≥ 10 are shown) | 151 to 153 °C | 22 mm | 91% and 91.7% | 19 mm | 82% and 82.6% | 21 mm | 91% and 91.3% | 0.5 µg/mL (≈ 1.47 µM) | 1 µg/mL (≈ 2.94 µM) | MIC (S. aureus; 24 h, read-out: MIC, S. aureus): 0.5 µg/mL (≈ 1.47 µM); MIC (B. subtilis; [4]): 1 µg/mL (≈ 2.94 µM); MIC (E. coli): 1 µg/mL (≈ 2.94 µM); MIC (P. aeruginosa): 2 µg/mL (≈ 5.88 µM); MIC (C. albicans; 24 h, read-out: MIC, C. albicans): 1 µg/mL (≈ 2.94 µM); MIC (C. albicans; [3]): 1 µg/mL (≈ 2.94 µM); MIC (A. flavus): 2 µg/mL (≈ 5.88 µM)
